Literature values, collected in EP3952993B1, “METHOD OF TREATING FUMARIC ACID ESTER-RESISTANT PLAQUE PSORIASIS” (Almirall S.A., priority 2019, dated 2020).
Where a name gives a salt, the structure may show the parent alone.

Test system: patients diagnosed with moderate-to-severe psoriasis
Settings: up to 720 mg/daily; 16 weeks; vs Fumaderm and placebo

COC(=O)/C=C/C(=O)OC [DMF, dimethyl fumarate]
co-primary endpoints: PASI 75 and clear/almost clear in the PGA: significantly superior to placebo and non-inferior to FAEs
